These results are taken from patent US20200261520A1, “Combination Therapies of Hepatitis B Virus (HBV)-infected individuals using Parapoxvirus Ovis (PPVO) and at Least one Further Antiviral Drug” (priority 2017, published 2020).

Series [1] is described as follows: Safety assessment (mortality, observations, body weight, temperature, hematology, clinical chemistry, necropsy, histopathology). The class given is in vivo, woodchuck. As to conditions: n=5/group at start of experiment; week of death. How it is done:
Treatment-induced changes in viremia, antigenemia, immunological parameters, as well as the induction of WHsAg antibody seroconversion were evaluated for determination of antiviral effects. Daily observations, changes in body weight and body temperatures, changes in hematology and clinical chemistry, as well as necropsy and histopathology were assessed for determination of safety.
The efficacy of AIC649 monotherapy, ETV monotherapy, or combination AIC649+ETV therapy was compared to a placebo control group (N=5 animals/group). […] Daily observations, changes in body weight and body temperatures, changes in hematology and clinical chemistry, as well as necropsy and histopathology were assessed for determination of safety. […]
Mortality was assessed daily for all animals.
Body temperature and weight assessments were performed together, weekly. The animal identification number and body temperature were read from a microchip implanted in the dorsal base of the tail using a hand-held chip reader (Biomedical Data Systems Inc.). […]
Uncoagulated whole blood was collected in EDTA tubes. […] Samples were analyzed the following day using an automated cell counter system (coulter) with program settings for woodchucks (Bellezza, C. A., et al., 2002, Elsevier. p. 309-328). […]

Series [2] has as its system woodchuck hepatitis virus (WHV). Nature of the series: T-cell proliferative responses of PBMCs to WHV peptides (CellTiter-Glo, stimulation index). The class given is in vivo. As to conditions: chronic WHV carrier woodchucks; fold change from baseline at T0. On the procedure: In woodchucks, over a 36-week period, AIC649 was administered i.v. and then i.m., alone or in combination with an initial 12 weeks of the direct acting antiviral, ETV, given orally.
The efficacy of AIC649 monotherapy, ETV monotherapy, or combination AIC649+ETV therapy was compared to a placebo control group (N=5 animals/group). […] Daily observations, changes in body weight and body temperatures, changes in hematology and clinical chemistry, as well as necropsy and histopathology were assessed for determination of safety.
PBMCs were isolated from whole blood and cultured for 5 days in the presence of DMSO (negative control), lipopolysaccharide (LPS, positive control), recombinant human IL-2 (positive control), or pools of peptides covering the entire WHcAg, WHsAg, or WHxAg, respectively. Using the CellTiter-Glo® assay, the number of viable cells in each test well was assessed using a luminescent signal proportional to the amount of ATP present, and thus to the number of viable cells. Cultures were assessed after 5 days and a stimulation index (SI) was derived relative to the negative controls as a measure of T-cell responses to specific antigens/stimuli:
SI=Test luminescence/negative control luminescence

SMILES strings stand for the structures.

Regarding `C=C1[C@H](CO)[C@@H](O)C[C@@H]1n1cnc2c(=O)[nH]c(N)nc21` [ETV, Entecavir], the deaths in group in series [1] is 1 animal each at week 4, 14, 21, 29. The “cell mediated immune responses (PBMCs stimulated with WHsAg peptides)” value in series [2] was “not”.
